Tests used:
[1] = tested on: P-gp; assay: Transport in the presence and absence of verapamil (P-gp function / verapamil inhibition of efflux) in MDCK-pHaMDR cell monolayer
Method: The cell monolayers were washed twice with prewarmed HBSS before the experiments were carried out. The HBSS medium in the AP side (0.5 mL, for absorption transport) or BL side (1.5 mL, for efflux transport) was replaced with different test compounds. The plates were shaken at 55 rpm for 90 min at 37 °C in a water bath. Samples were quantitatively collected from both sides of the cell monolayer, immediately frozen, lyophilized, and then preserved below −20 °C. To measure the intracellular amounts, the cell monolayers were lyophilized after three freeze (−20 °C)–thaw (room temperature) cycles and preserved below –20 °C. […] The tested concentrations of alkaloids 1–6 were 40 µM. The function of P-gp were tested by the transport of Rh123 at 10 µM in the presence and absence of verapamil (100 µM) undertaken as described above.
The verapamil inhibition experiment was carried out for alkaloids 1 and 3. The cells were pre-incubated with 100 µM of verapamil for 30 min before drug transport assays. Then verapamil was added to both sides, and 40 µM of test alkaloid was added to AP or BL side.
Papp in AP→BL or BL→AP direction of each alkaloid was calculated based on the following equation:Papp = dQ/dt/A/C0 (cm/s) where Q is the accumulation quantity of the alkaloid in the receiver side (μmol), dQ/dt is the linear appearance rate of the alkaloid in the receiver side (μmol/s), C0 is the initial concentration in the donor side (µM), and A is the membrane surface area (cm^2). All of the experiments were conducted in six duplications and data were expressed as the mean ± SD.

[2] = tested on: MDCK-pHaMDR cell monolayer; conditions: for BBB permeability classification: MDCK-MDR1; for intracellular accumulation rates: dog, MDCK-MDR1, 90 min, 40 µM
[3] = Bidirectional transport across MDCK-pHaMDR cell monolayer (in vitro BBB model); conditions: dog; for recovery at 90 min, 40 µM: MDCK-MDR1, Recovery Rate
[4] = tested on: MDCK-pHaMDR cell monolayer; assay: as above; conditions: for Intracellular Accumulation / Efflux Ratio (Papp BL→AP/Papp AP→BL): 40 μM, 90 min; for transport mechanism: time- (30–180 min) and concentration- (20–120 μM) dependence
[5] = in vitro; conditions: dog
[6] = Stability of QC samples after three freeze-thaw cycles (HPLC); type: physicochemical; conditions: three freeze (−20 °C)-thaw cycles, percentage remains
Method: The stock solutions of the six alkaloids were diluted to three concentrations (low, medium and high) as quality control (QC) samples. Accuracy, precision and stability of QC samples were validated. Accuracy and intraday precision were evaluated by determining the QC samples in three replicates on the same day, while interday precision was assessed by repeated analysis of the same QC samples over three consecutive days. Precision was estimated by RSD, which should not exceed 15%. Accuracy was assessed by comparison of the calculated mean concentrations with the spiked concentrations, and the acceptable range should be within 85–115%. The absolute recoveries of six alkaloids were determined by comparing the peak areas of analytes in QC samples with those of the standard solutions in MeOH with equivalent concentrations.

[7] = dog, MDCK-MDR1, with verapamil 100 µM
[8] = MDCK-MDR1, Papp AP→BL, 40 μM, 90 min

Row | Compound | recovery at 90 min, 40 µM ([3]; AP→BL, 40 μM, 90 min) | recovery at 90 min, 40 µM ([3]; BL→AP, 40 μM, 90 min) | Intracellular Accumulation ([4]; BL→AP) | Papp B→A ([5]; MDCK-MDR1) | Papp A→B [5, 8] | Stability ([6]; QC sample 5 μM) | Stability ([6]; QC sample 60 μM) | Stability ([6]; QC sample 120 μM) | Papp A→B at 90 min, 40 µM ([5]; MDCK-MDR1) | Papp B→A at 90 min, 40 µM ([5]; MDCK-MDR1) | further results
1 | COC(=O)c1ccccc1-c1c2ccc(=N)cc-2oc2cc(N)ccc12 [Rh123, Rhodamine 123, reference compound] |  |  |  |  |  |  |  |  |  |  | Papp A→B at 90 min, 10 µM ([1]; dog, MDCK-MDR1): 0.843 ± 0.195 ×10⁻⁶ cm/s; Papp B→A at 90 min, 10 µM ([1]; dog, MDCK-MDR1): 5.8 ± 0.259 ×10⁻⁶ cm/s; efflux ratio at 90 min, 10 µM ([1]; dog, MDCK-MDR1, Efflux Ratio (Papp BL→AP/Papp AP→BL), Rh123 10 μM, 90 min, absence of verapamil): 6.88; Papp A→B at 90 min, 10 µM [1, 7]: 1.27 ± 0.213 ×10⁻⁶ cm/s; Papp B→A at 90 min, 10 µM [1, 7]: 1.71 ± 0.099 ×10⁻⁶ cm/s; efflux ratio at 90 min, 10 µM ([1]; dog, MDCK-MDR1, with verapamil 100 µM, Efflux Ratio (Papp BL→AP/Papp AP→BL), Rh123 10 μM with 100 μM verapamil, 90 min): 1.34
2 | CC[C@H]1CN2CC[C@]3(C(=O)Nc4ccccc43)[C@@H]2C[C@@H]1/C(=C\OC)C(=O)OC [alkaloid 1, rhynchophylline] | 99.9 ± 1.15% | 102.2 ± 0.47% | 0.40 ± 0.04% | 42.3 ± 2.48 ×10⁻⁶ cm/s | 4.37 ± 0.37 ×10⁻⁶ cm/s | 96.32 ± 3.30% | 96.86 ± 4.64% | 102.59 ± 3.38% |  |  | BBB permeability classification [2]: moderate permeability; Intracellular Accumulation ([4]; AP→BL): 0.36 ± 0.05%; Papp A→B ([5]; MDCK-MDR1, Papp AP→BL (level), AP side to BL side): ~1 ×10⁻⁶ cm/s; Papp A→B at 90 min, 40 µM ([1]; dog, MDCK-MDR1): 22.2 ± 6.41 ×10⁻⁶ cm/s; Papp B→A at 90 min, 40 µM ([1]; dog, MDCK-MDR1): 18.1 ± 1.09 ×10⁻⁶ cm/s; P-gp substrate status ([1]; from verapamil (100 µM) inhibition of efflux): substrates of P-gp
3 | CC[C@H]1CN2CC[C@@]3(C(=O)Nc4ccccc43)[C@@H]2C[C@@H]1/C(=C\OC)C(=O)OC [alkaloid 2, isorhynchophylline] | 94.3 ± 1.43% | 101 ± 1.89% | 0.37 ± 0.06% | 27.7 ± 0.93 ×10⁻⁶ cm/s | 17.7 ± 1.2 ×10⁻⁶ cm/s | 108.52 ± 1.08% | 100.08 ± 2.26% | 105.21 ± 3.28% |  |  | Intracellular Accumulation ([4]; AP→BL): 0.24 ± 0.04%; transport mechanism [4]: passive diffusion; Papp ([5]; MDCK-MDR1): ~10 ×10⁻⁶ cm/s
4 | C=C[C@H]1CN2CC[C@]3(C(=O)Nc4ccccc43)[C@@H]2C[C@@H]1/C(=C\OC)C(=O)OC [alkaloid 3, corynoxeine] | 96.4 ± 1.17% | 99.6 ± 1.57% |  |  |  | 106.67 ± 5.82% | 102.37 ± 1.65% | 101.52 ± 2.26% | 1.21 ± 0.14 ×10⁻⁶ cm/s | 49.7 ± 4.71 ×10⁻⁶ cm/s | BBB permeability classification [2]: moderate permeability; intracellular accumulation rates [2]: less than 0.4%; Efflux Ratio (Papp BL→AP/Papp AP→BL) [4]: 40.94; Efflux Ratio (Papp BL→AP/Papp AP→BL) ([4]; listed as corynoxeine (3)): above 2; Papp A→B ([5]; MDCK-MDR1): ~1 ×10⁻⁶ cm/s; Papp A→B at 90 min, 40 µM ([1]; dog, MDCK-MDR1): 17.2 ± 2.45 ×10⁻⁶ cm/s; Papp B→A at 90 min, 40 µM ([1]; dog, MDCK-MDR1): 17.5 ± 0.82 ×10⁻⁶ cm/s; efflux ratio at 90 min, 40 µM ([1]; dog, MDCK-MDR1, with verapamil 100 µM, Efflux Ratio (Papp BL→AP/Papp AP→BL), 40 μM alkaloid with 100 μM verapamil, 90 min): < 2
5 | C=C[C@H]1CN2CC[C@@]3(C(=O)Nc4ccccc43)[C@@H]2C[C@@H]1/C(=C\OC)C(=O)OC [alkaloid 4, isocorynoxeine] | 93 ± 1.4% | 98.47 ± 0.82% |  |  |  | 107.15 ± 5.06% | 102.72 ± 1.97% | 102.02 ± 2.43% | 11.1 ± 1.49 ×10⁻⁶ cm/s | 20.7 ± 1.03 ×10⁻⁶ cm/s | intracellular accumulation rates [2]: less than 0.4%; efflux ratio at 90 min, 40 µM ([3]; MDCK-MDR1, Efflux Ratio (Papp BL→AP/Papp AP→BL), 40 μM, 90 min): < 2; Papp at 90 min, 40 µM ([5]; MDCK-MDR1): ~10 ×10⁻⁶ cm/s
6 | CC[C@H]1CN2CCc3c([nH]c4ccccc34)[C@H]2C[C@@H]1/C(=C\OC)C(=O)OC [alkaloid 5, hirsutine] | 89.3 ± 6.15% | 104 ± 1.94% | 6.19 ± 0.73% | 14.1 ± 0.73 ×10⁻⁶ cm/s | 15.1 ± 1.32 ×10⁻⁶ cm/s | 106.1 ± 3.57% | 101.9 ± 6.51% | 100.5 ± 4.86% |  |  | transport mechanism [4]: passive diffusion; Papp ([5]; MDCK-MDR1): ~10 ×10⁻⁶ cm/s
7 | C=C[C@H]1CN2CCc3c([nH]c4ccccc34)[C@H]2C[C@@H]1/C(=C\OC)C(=O)OC [alkaloid 6, hirsuteine] | 88.9 ± 5.99% | 104 ± 1.17% |  |  |  | 106.89 ± 3.01% | 103.80 ± 5.92% | 102.23 ± 4.19% | 14.9 ± 1.83 ×10⁻⁶ cm/s | 11.3 ± 1.8 ×10⁻⁶ cm/s | Papp at 90 min, 40 µM ([5]; MDCK-MDR1): ~10 ×10⁻⁶ cm/s
8 | Cn1c(=O)c2c(ncn2C)n(C)c1=O [caffeine, reference compound] |  |  |  |  |  |  |  |  |  |  | Papp at 90 min ([3]; MDCK-MDR1): 30 ×10⁻⁶ cm/s
